Results reported in patent publication US9359298B2, “Cajanine structure analogous compound, preparation method and use” (INSTITUTE OF MEDICINAL BIOTECHNOLOGY, CHINESE ACADEMY OF …, priority 2011, dated 2016).
In brackets after ≈: the same amount, converted by molar mass.

Key:
Format in all cases: cell-based
[1] = test system: Influenza A virus (hanfang359/95); test: Determination of anti-influenza virus activity (CPE in MDCK cells); details: for IC50: Influenza A virus, MDCK, 36 h; for anti-influenza virus activities compared with the lead compound cajanine: statement in words
HCV = test: Anti-hepatitis C virus (HCV) activity assay (HCV RNA in Huh7.5 cells); details: for EC50: Hepatitis C virus, Huh7.5, 72 h, Huh7.5 cells, 72 h, HCV RNA by RT-PCR, Reed-Muench, read-out: HCV EC50; for anti-HCV viral activity: statement in words
Procedure: Inoculate Huh7.5 cells into 96-well plates to a density of 3×10^4 cells/cm^2, culture for 24h, infect the cells with 45 IU/cell HCV supernatant, meanwhile, add drug solutions or solvent control for treatment.

PC12 cells [2] = test: Neuroprotective activity assay, rotenone injury to PC12 cells (MTT); details: for viability at 10 µM: Rattus norvegicus, PC-12, 48 h, 10 μM test compound, 4 μM rotenone, 48 h, Control 100.0 ± 8.9, Model 73.2 ± 7.8, read-out: rotenone (surviving PC12 cells, MTT 570 nm); for protective effect on rotenone injury to PC12 cells: statement in words
Method in brief: (§1)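 PC12 cells on poly-lysine plated 24 h, then injured 48 h by serum-free DMEM or 4 μM rotenone with 10 μM test compound present during injury. Viability read by MTT (4 h), absorbance 570 nm.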

HIV-1 III B virus = test: Anti-HIV activity assay (P24 antigen in MT-4 cells); details: for IC50: Human immunodeficiency virus 1, MT4, 96 h, MT-4 cells, HIV-1 III B 100TCID50, 96 h, P24 antigen, read-out: HIV IC50; for anti-HIV viral activity: statement in words
Coxsackie virus B6 = test: Coxsackie virus activity assay (CPE in Vero cells); details: Vero, read-out: COX-B6 IC50, Vero cells, about 100TCID50, CPE, Reed-Muench
PC12 cells [3] = test: Neuroprotective activity assay, serum-deprived injury to PC12 cells (MTT); details: for viability at 10 µM: Rattus norvegicus, PC-12, 48 h, 10 μM test compound, 48 h, Control 100.0 ± 9.2, Model 69.3 ± 4.1, read-out: serum-deprived (surviving PC12 cells, MTT 570 nm); for protective effect on serum-deprived injury to PC12 cells: statement in words
Method in brief: as §1

| SMILES | IC50 [1] [µg/mL] | anti-influenza virus activities compared with the lead compound cajanine [1] | EC50 (HCV) [µg/mL] | anti-HCV viral activity (HCV) | viability at 10 µM (PC12 cells [2]) [%] | protective effect on rotenone injury to PC12 cells (PC12 cells [2]) | IC50 (HIV-1 III B virus) [µg/mL] | anti-HIV viral activity (HIV-1 III B virus) | IC50 (Coxsackie virus B6) [µg/mL] | viability at 10 µM (PC12 cells [3]) [%] | protective effect on serum-deprived injury to PC12 cells (PC12 cells [3]) |
| --- | --- | --- | --- | --- | --- | --- | --- | --- | --- | --- | --- |
| COc1cc(/C=C/CCc2ccccc2)cc(O)c1CC=C(C)C [Compound 10l, 2-isopentenyl-3-methoxy-5-[(E)-4′-phenylbuten-1′-yl]phenol] | 0.65 (≈ 2.02 µM) | significantly stronger than the lead compound cajanine | 0.95 (≈ 2.95 µM) | stronger anti-HIV, HCV viral activities | 84.6 ± 6.2 | the strongest activities | 2.2 (≈ 6.82 µM) | stronger anti-HIV, HCV viral activities | > 18.2 | 81.3 ± 2.9 | the strongest activities |
| COc1cc(/C=C/C=C/c2ccccc2)cc(O)c1CC=C(C)C [Compound 10m, 2-isopentenyl-3-methoxy-5-[(1′E,3′E)-phenylbutadiene-1′,3′-yl]phenol] | 2.35 (≈ 7.33 µM) | significantly stronger than the lead compound cajanine | 1.75 (≈ 5.46 µM) | stronger anti-HIV, HCV viral activities | 85.3 ± 7.1 | the strongest activities | 2.33 (≈ 7.27 µM) | stronger anti-HIV, HCV viral activities | 6.12 (≈ 19.1 µM) | 89.3 ± 6.4 | the strongest activities |
| COc1cc(/C=C/c2ccccc2)cc(O)c1C/C=C(\C)CCC=C(C)C [Compound 10o] | > 2.06 | – | 1.32 (≈ 3.64 µM) | stronger anti-HIV, HCV viral activities | 87.6 ± 5.4 | the strongest activities | 0.96 (≈ 2.65 µM) | stronger anti-HIV, HCV viral activities | 0.96 (≈ 2.65 µM) | 86.3 ± 3.8 | the strongest activities |
| COc1cc(/C=C/C2CCCCC2)cc(O)c1CC=C(C)C [Compound 10p, 2-isopentenyl-3-methoxy-5-[(E)-2-cyclohexylvinyl]phenol] | 2.65 (≈ 8.82 µM) | – | 2.95 (≈ 9.82 µM) | – | 86.7 ± 9.1 | the strongest activities | 7.19 (≈ 23.9 µM) | – | > 6.19 | 84.6 ± 2.7 | the strongest activities |
| COc1cc(/C=C/c2ccc(O)cc2)cc(O)c1CC=C(C)C [Compound 10q, 2-isopentenyl-3-methoxy-5-[(E)-4′-hydroxystyryl]-phenol] | 1.39 (≈ 4.48 µM) | significantly stronger than the lead compound cajanine | 0.89 (≈ 2.87 µM) | stronger anti-HIV, HCV viral activities | 76.8 ± 5.8 | – | 2.38 (≈ 7.67 µM) | stronger anti-HIV, HCV viral activities | 2.35 (≈ 7.57 µM) | 79.5 ± 1.4 | – |
| COc1cc(/C=C/c2ccncc2)cc(O)c1CC=C(C)C [Compound 10r, 2-isopentenyl-3-methoxy-5-[(E)-(pyrid-4-yl)ethenyl]phenol] | > 0.69 | – | 1.71 (≈ 5.79 µM) | – | 58.4 ± 6.5 | – | 1.73 (≈ 5.86 µM) | – | 3.23 (≈ 10.9 µM) | 68.5 ± 2.4 | – |
| COc1c(Cl)c(/C=C/c2ccccc2)cc(O)c1CC=C(C)C [Compound 10s, 2-isopentenyl-3-methoxy-4-chloro-5-[(E)-styryl]phenol] | > 6.17 | – | 5.17 (≈ 15.7 µM) | – | 79.8 ± 3.5 | – | 2.75 (≈ 8.36 µM) | – | 4.35 (≈ 13.2 µM) | 78.5 ± 6.3 | – |
| COc1cc(CCc2ccccc2)cc(O)c1CCC(C)C [Compound 10u, 2-isopentyl-3-methoxy-5-phenethyl phenol] | > 2.06 | – | 4.06 (≈ 13.6 µM) | – | 85.4 ± 2.3 | the strongest activities | 6.39 (≈ 21.4 µM) | – | > 6.19 | 87.6 ± 3.2 | the strongest activities |
| COc1cc(CCc2ccccc2)cc(O)c1CC=C(C)C [Compound 10v, 2-isopentenyl-3-methoxy-5-phenethyl phenol] | > 0.69 | – | 1.73 (≈ 5.84 µM) | – | 87.1 ± 2.5 | the strongest activities | 1.36 (≈ 4.59 µM) | – | > 6.19 | 85.2 ± 4.1 | the strongest activities |
| COc1cc(/C=C/c2ccccc2)cc(O)c1CCC(C)C [Compound 10w, 2-isopentyl-3-methoxy-5-[(E)-styryl]phenol] | 0.53 (≈ 1.79 µM) | significantly stronger than the lead compound cajanine | 2.59 (≈ 8.74 µM) | – | 78.2 ± 5.8 | – | 0.75 (≈ 2.53 µM) | – | 2.45 (≈ 8.27 µM) | 79.1 ± 4.6 | – |
| COc1cc(/C=C/c2ccccn2)cc(O)c1CC=C(C)C [Compound 10x, 2-isopentenyl-3-methoxy-5-[(E)-2-(pyrid-2-yl)ethenyl]phenol] | 0.09 (≈ 0.305 µM) | significantly stronger than the lead compound cajanine | 0.93 (≈ 3.15 µM) | – | 78.9 ± 5.4 | – | 1.09 (≈ 3.69 µM) | – | 0.42 (≈ 1.42 µM) | 78.9 ± 4.6 | – |
| COc1cc(/C=C/c2cc(OC)c(OC)c(OC)c2)cc(O)c1CC=C(C)C [Compound 10y, 2-isopentenyl-3-methoxy-5-[(E)-3,4,5-trimethoxystyryl]phenol] | 0.13 (≈ 0.338 µM) | significantly stronger than the lead compound cajanine | 1.39 (≈ 3.62 µM) | – | 89.5 ± 2.5 | – | 1.66 (≈ 4.32 µM) | – | 2.58 (≈ 6.71 µM) | 89.1 ± 5.4 | – |
| COc1ccnc(/C=C/c2cc(O)c(CC=C(C)C)c(OC)c2)c1 [Compound 10z, 2-isopentenyl-3-methoxy-5-[(E)-2-(4-methoxypyrid-2-yl)ethenyl]phenol] | 0.32 (≈ 0.983 µM) | significantly stronger than the lead compound cajanine | 1.19 (≈ 3.66 µM) | – | 87 ± 5.1 | – | 2.83 (≈ 8.7 µM) | – | 0.84 (≈ 2.58 µM) | 84.6 ± 3.9 | – |
| COC(=O)c1c(O)c(CC=C(C)C)c(OC)c(Cl)c1/C=C/c1ccccc1 [Compound 12, methyl 2-hydroxy-3-isopentenyl-4-methoxy-5-chloro-6-[(E)-styryl]benzoate] | 6.17 (≈ 15.9 µM) | – | 6.87 (≈ 17.8 µM) | – | 74.5 ± 3.2 | – | 8.17 (≈ 21.1 µM) | – | > 6.17 | 60.2 ± 5.1 | – |
| COC(=O)c1c(/C=C/c2ccccc2)cc(OC)c(CC=C(C)C)c1OC [Compound 14, methyl 2,4-dimethoxy-3-isopentenyl-6-[(E)-styryl]benzoate] | > 2.06 | – | 1.77 (≈ 4.83 µM) | – | 73.7 ± 8.5 | – | 1.32 (≈ 3.6 µM) | – | 1.6 (≈ 4.37 µM) | 69.7 ± 5.6 | – |
| COc1cc(/C=C/c2ccccc2)c(C(=O)O)c(OC)c1CC=C(C)C [Compound 15, 2-methoxy-3-isopentenyl-4-methoxy-6-[(E)-styryl]benzoic acid] | > 0.23 | – | 0.83 (≈ 2.36 µM) | – | 83.1 ± 5.7 | – | 1.43 (≈ 4.06 µM) | – | > 2.06 | 74.1 ± 2.5 | – |
